Measurements as given in patent US8592436B2, “Arylamide pyrimidone derivatives” (Sanofi, priority 2007, dated 2013).

Tests used:
[1] = molecular target: GSK3β (Homo sapiens, UniProt P49841); assay: Inhibitory activity against GSK3β (33P-ATP phosphorylation of prephosphorylated GS1 peptide, two protocols); assay type: biochemical; details: protocol used not stated
Procedure: Two different protocols can be used. In a first protocol: 7.5 μM of prephosphorylated GS1 peptide and 10 μM ATP (containing 300,000 cpm of ^33P-ATP) were incubated in 25 mM Tris-HCl, pH 7.5, 0.6 mM DTT, 6 mM MgCl2, 0.6 mM EGTA, 0.05 mg/ml BSA buffer for 1 hour at room temperature in the presence of GSK3beta (total reaction volume: 100 microliters). In a second protocol: 4.1 μM of prephosphorylated GS1 peptide and 42 μM ATP (containing 260,000 cpm ^33P-ATP) were incubated in 80 mM Mes-NaOH, pH 6.5, 1 mM Mg acetate, 0.5 mM EGTA, 5 mM 2-mercaptoethanol, 0.02% Tween 20, 10% glycerol buffer for 2 hours at room temperature in the presence of GSK3beta. Inhibitors were solubilized in DMSO (final solvent concentration in the reaction medium, 1%). The reaction was stopped with 100 microliters of a solution made of 25 g polyphosphoric acid (85% P2O5), 126 ml 85% H3PO4, H2O to 500 ml and then diluted to 1:100 before use. An aliquot of the reaction mixture was then transferred to Whatman P81 cation exchange filters and rinsed with the solution described above. Incorporated ^33P radioactivity was determined by liquid scintillation spectrometry. The phosphorylated GS-1 peptide had the following sequence: NH2-[…](P)EDEE-COOH. SEQ ID NO: 1 (Woodgett, J. R. (1989) Analytical Biochemistry 180, 237-241.

Sequence of GSK3β (P49841 whole entry): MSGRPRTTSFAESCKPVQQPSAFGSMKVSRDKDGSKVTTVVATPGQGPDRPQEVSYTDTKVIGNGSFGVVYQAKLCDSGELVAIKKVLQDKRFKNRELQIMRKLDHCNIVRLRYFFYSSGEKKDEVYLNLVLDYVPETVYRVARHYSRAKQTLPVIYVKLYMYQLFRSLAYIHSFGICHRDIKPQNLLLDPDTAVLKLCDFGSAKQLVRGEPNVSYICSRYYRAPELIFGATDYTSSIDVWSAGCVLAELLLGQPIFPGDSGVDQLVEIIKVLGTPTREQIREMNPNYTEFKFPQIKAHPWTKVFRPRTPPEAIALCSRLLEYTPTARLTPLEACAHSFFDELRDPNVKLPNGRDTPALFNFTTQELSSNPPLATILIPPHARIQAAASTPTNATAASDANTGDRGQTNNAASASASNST

COc1ccccc1C(=O)NCc1nc(-c2ccncn2)cc(=O)n1C [compound 1, 2-Methoxy-N-(1-methyl-6-oxo-1,6-dihydro-[4,4′]bipyrimidinyl-2-ylmethyl)-benzamide]
melting point: 239 to 241 °C | IC50 [1]: 23 nM
